How the values were obtained:
[1] = system: CLERK ectodomain (CLERK-ECD); experiment: Isothermal titration calorimetry, CLERK ectodomain; assay type: binding, Arabidopsis thaliana; conditions: ITC, 25°C, 20 mM citrate (pH 5.0), 150 mM NaCl; 400 µM peptide into 30 µM CLERK-ECD
Description: Isolation of recombinant proteins and analytical gel filtrations were carried out as described previously ([Hazak et al., 2017]) with small adjustments. The coding sequences for BAM1-ECD (amino acids 20-637), BAM3-ECD (30-651), PXY-ECD (30-647), NIK1-ECD (32-248), NIK2-ECD (33-248), NIK3-ECD (26-238), CLERK-ECD (28-236) and At5G63710-ECD (51-224) were amplified from Arabidopsis thaliana cDNA using PfuX7 polymerase. All ECD-coding sequences were then cloned into a modified pFAST-BAC1 vector (Geneva Biotech) by GIBSON cloning, resulting in the addition of the azurocidin signal peptide sequence to the 5′-end, and of a 2×-STREP-9×HIS tag to the 3′-end of the ECD sequences. These plasmids, after being confirmed by sequencing, were transformed into Escherichia coli DH10MultiBac (Geneva Biotech) followed by the extraction of the resulting bacmids. Transfection of the bacmids into Spodoptera frugiperda Sf9 cells with Profectin (AB Vector) was carried out to produce and amplify the respective virus. Recombinant secreted expression of the proteins was carried out by addition of virus to Trichoplusia ni Tnao38 cells to reach a viral multiplicity of 1 and incubation of the cells for 3 days. […] Concentrations of the pure proteins were assessed by measuring their absorbance at 280 nm (NanoDrop Lite; Thermo Scientific) and subsequent correction with their respective extinction coefficient. […]

[2] = system: VISUAL-cultured wild-type cotyledons (sieve element-specific genes); experiment: RNAseq transcriptomic response in the VISUAL trans-differentiation assay; assay type: cell-based, Arabidopsis thaliana; conditions: for Number of responsive genes / Overlap of CLE26- and CLE45-responsive genes: 100 nM peptide, 2 h, q value<0.01
Text: In an attempt to isolate novel components of CLE peptide signaling in A. thaliana root protophloem development, we embarked on a combinatorial approach of transcriptomic analysis and forward genetics. Experimental investigation of developing protophloem sieve elements is inherently difficult, because they represent only 40-50 cells inside the vascular cylinder of the root meristem, and some of our genes of interest are expressed only in a subset of these. Protophloem-specific transcriptomic responses are thus strongly diluted when root tips are assayed, and attempts to identify, e.g. protophloem-specific CLE45-responsive genes have so far been unsuccessful ([Depuydt et al., 2013]). However, in a novel trans-differentiation assay [vascular cell induction culture system using Arabidopsis leaves (VISUAL)] ([Kondo et al., 2016]), in which cotyledon or leaf mesophyll cells are re-programmed to differentiate into a ∼50:50 mix of xylem vessels and sieve elements, sieve element-specific genes can be monitored in unprecedented abundance. Although these trans-differentiated sieve elements are not root protophloem, they do represent a native cell type in which sieve element regulators can be investigated successfully ([Breda et al., 2017]; [Kondo et al., 2016]). Moreover, a transcriptomic time series identified BAM3 as a central node in the early module of the trans-differentiation process ([Kondo et al., 2016]). Thus, we concluded that VISUAL could be employed to identify CLE26- and CLE45-responsive sieve element-specific genes. To achieve this, we VISUAL-cultured wild-type cotyledons and monitored BAM3 expression in a parallel cultured transgenic line that carried a BAM3::GUS reporter gene. Strong comprehensive BAM3 expression was observed after 48 h. At this time point, the wild-type sample was split in replicates and treated with control, 100 nM CLE26 or 100 nM CLE45 for 2 h. Total RNA was isolated immediately after from these samples, and cDNA was prepared for high-throughput sequencing.
Vascular tissue trans-differentiation was induced in cotyledons over 2 days as described previously ([Kondo et al., 2016]). Samples were then treated with 100 nM of CLE26 or CLE45 peptide for 2 h. Total RNA of two biological replicates was then extracted from 100 mg of fresh material, using RNeasy Plant mini kits (Qiagen). Truseq Stranded mRNA kits (Illumina) were used to prepare cDNA libraries, which were sequenced on an Illumina Hiseq 2500 instrument. Read counts and differential expression were determined with Kallisto ([Bray et al., 2016]) and Sleuth ([Pimentel et al., 2017]) software, using the TAIR10 reference transcriptome. The raw data have been deposited in the NCBI Sequence Read Archive (www.ncbi.nlm.nih.gov/sra/) under accession SRP126390.

Sequence | Direct binding to CLERK ectodomain [1] | Regulation of SARK and NIK2 ([2]; 100 nM CLE26, 2 h) | Regulation of CLERK (At2g23950) ([2]; 100 nM CLE26, 2 h, top CLE26-responsive gene) | Number of responsive genes [2] [genes] | Overlap of CLE26- and CLE45-responsive genes [2] [genes]
RKVPRGPDPIHN [CLE26] | no direct binding | downregulated | downregulated | 167 | 36
RRVRRGSDPIHN [CLE45] | no direct binding |  |  | 97 | 36

Source: PMC6001375, “CLERK is a novel receptor kinase required for sensing of root-active CLE peptides in Arabidopsis” (Development (Cambridge, England), 2018)
